This is an account of results in patent US20220356163A1, “SMALL MOLECULE INHIBITORS OF Id PROTEINS” (MEMORIAL SLOAN KETTERING CANCER CENTER, priority 2019, published 2022).

SMILES strings stand for the structures.

One series deals with ID1, ID2, ID3 and ID4. Briefly: Western blot for ID1-ID4 in HCT116 cells. The following applies: 40 μM, 0-48 hours. In kind it is cell-based. As to the method:
(§1) Immunoblotting. For immunoblotting, cells were collected by trypsinization, washed with PBS and lysed in homogenization buffer (0.3 M sucrose, 10 mM Tris (pH 8.0), 400 mM sodium chloride, 3 mM magnesium chloride, 0.5% NP40/IGEPAL, 100 μg/mL Aprotinin+Protease inhibitor cocktail (Roche #11 836 153 001). Proteins were separated by SDS-PAGE, transferred to a membrane (LI-COR), probed with primary antibodies overnight at 4° C., and probed with secondary antibodies (LI-COR) for 1-2 hours at room temperature. Proteins were visualized using the LI-COR Odyssey Infrared Imaging detection system. The following primary antibodies were used Id1, Id2, Id3, Id4 (195-14, 9-2-8, 17-3, 82-12, respectively, all from Biocheck), Cyclin D1 (2978, Cell Signaling), Actin (A2066, Sigma), Tubulin (T4026, Sigma). Western blot quantification was carried out using channel 700 and channel 800 intensity data from Odyssey application software version 3.0.30 (LI-COR), subtracting blank values and normalizing to Tubulin.
The activity of AGX51 was tested on primary human umbilical vein endothelial cells (HUVECs) and the HCT116 colorectal cancer cell line, two cell types with different ID1-4 expression profiles. […] The effects of AGX51 on ID3 loss in HUVECs was diminished in the 20-40 μM range compared with ID1, consistent with the weaker perturbation observed in the CD spectra.
For orientation: A western blot detects proteins with antibodies after separation by electrophoresis.

The test system of the next series is HCT116 cells. Briefly: HCT116 MTT viability, cell cycle and Cyclin D1. The following applies: HCT116, 40 μM. In kind it is cell-based. As to the method:
as §1
Cell viability assays. Cell lines were seeded in a 96 well plate (5000 cells per well). After overnight incubation, cells were treated with AGX51 and incubated for 24 hours then MTT reagent (5 mg/mL) was added per well and the cells were incubated for four hours. Following incubation, media was aspirated and 200 μL DMSO was added per well. Absorbance was then measured at 570 nm using a plate reader (Synergy 2, BioTek). Cell growth profiles were determined by seeding 38,000 cells in a 24-well plate, in triplicate for each time point, and counting the cells on days 1, 3 and 5 after seeding, using trypan blue exclusion of dead cells.
Cell cycle analysis. […] For cell cycle analysis cells were centrifuged 1000 rpm for 5 minutes, washed with 1×PBS and then resuspended in 0.5 mL PI/RNase staining buffer (550825, BD Biosciences), incubated for 15 minutes at room temperature and analyzed by flow cytometry (LSR II).

A short description of another series: Aqueous solubility. It counts as physicochemical.
In the next series the test system is colon tumors. Briefly: Azoxymethane (AOM) colon tumor model. It counts as in vivo, mouse. The following applies: 15 mg/kg i.p. for three weeks. As to the method: Spontaneous colon tumors will be induced by treating 30, 4-week old male A/J mice (Jackson Laboratory) with AOM (10 mg/kg; Sigma Aldrich) once a week by i.p. injection for 6 weeks. Mice will be maintained on AIN-93G purified diet (Research Diets) for the duration of the experiment. After a three-week treatment break mice will be treated i.p. for three weeks with DMSO, AGX51 (15 mg/kg) or a compound of the present technology (e.g., AGX-A; 15 mg/kg). Following the last injection, the mice will be euthanized and colon tumors will be formalin fixed to assess tumor burden. Tumor numbers and size will be determined in whole mounts of the tissues following methylene blue staining. For aid in future comparison with a compound of the present technology, the study was initially performed with DMSO and AGX51 where exemplary data of effects of AGX51 on sporadic tumor is shown FIGS. 35A-35D.

The target in another series is T1, ID1 (Homo sapiens, UniProt P41134).
T1 sequence (P41134 1-155): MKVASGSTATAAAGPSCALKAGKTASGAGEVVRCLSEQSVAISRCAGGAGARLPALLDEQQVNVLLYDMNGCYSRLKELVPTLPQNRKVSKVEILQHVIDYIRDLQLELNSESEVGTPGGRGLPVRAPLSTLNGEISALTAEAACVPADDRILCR
Description: Knockdown of Id1 in TFK1 cell cultures. In kind it is cell-based. The arrangement: endogenous in cells; host or cells: TFK1. The following applies: TFK1, FIG. 21. An excerpt:
Following the methods described herein (see, e.g., Examples 12-13), AGX-A and AGX51 were compared for their ability to mediate Id knockdown in cell cultures. FIG. 21 illustrates side-by-side comparative effects of AGX51 and AGX-A for knockdown of Id1 in TFK1 cell cultures, and FIG. 22 illustrates side-by-side comparative effects of AGX51 and AGX-A for knockdown of Id3 in TFK1 cell cultures.

For the compound `CCC(=O)N(CCC(c1ccc2c(c1)OCO2)c1ccccc1OC)Cc1ccccc1` (racemic) [AGX51, N-(3-(benzo[d][1,3]dioxol-5-yl)-3-(2-methoxyphenyl)propyl)-N-benzylpropionamide], the ID protein levels result with ID1, ID2, ID3 and ID4 was “reduced levels of ID1, 1D2, ID3 and ID4”. The “Cyclin D1 levels” value in the series on HCT116 cells (0-48 hours) is listed as “reduction in Cyclin D1 levels”. Besides, the cell cycle entry with HCT116 cells (4-24 hours) is on record as “G0/G1 growth arrest”. Further, the cell viability result in the series on HCT116 cells (24 hours) is “reduced cell viability”. Besides, the water solubility entry in “Aqueous solubility” is “water insoluble”. The “number of colon tumors” value in the series with colon tumors (p=0.008) was “significant decrease in the number of colon tumors”. In addition, in the series on colon tumors (significant for tumors >3 mm (p=0.004)), the “colon tumor size vs DMSO group” value is on record as “smaller than those in the DMSO group”.
Turning to `COc1ccccc1C(CCNCc1ccccc1)c1ccc(OC(C)C)cc1` (centres unmarked) [AGX-A, N-benzyl-3-(4-isopropoxyphenyl)-3-(2-methoxyphenyl)propan-1-anine], on ID1, the “Id1 knockdown potency vs AGX51” value is “superior anti-Id1 and anti-Id3 potency compared to AGX51”.
